This data set concerns the target HSD17B13. As to conditions: ASO, HepaRG.

The record followed here is the OligoGym collection.

After the bases stand the sugars from the 5' end (letter, count) and the backbone: PS all phosphorothioate, else s phosphorothioate and o phosphodiester by linkage. Methylation of C is not given here. e = 2'-O-(2-methoxyethyl) (MOE); k = constrained ethyl (cEt); d = 2'-deoxy (DNA); m = 2'-O-methyl

As for “TTACAGCATCAAGACA (sugars k3 d9 k3 e1, PS)”, the target mRNA inhibition (1 µM) is 44%.
Sequence TTACAGCATCAAGACA (sugars k3 d10 k3, PS) returned a target mRNA inhibition (1 µM) of 46%.
Take TTAGAAACTGCTCCTC (sugars k3 d10 k3, PS): where the note is “1 µM”, the target mRNA inhibition worked out at 48%.
Consider TTAGAATACGCTGAGA (sugars k3 d10 k3, PS), for which the target mRNA inhibition (1 µM) came out at 48%.
On the same count and under the same terms, under TTAGAGTGCTTAGTTC (sugars k3 d10 k3, PS) stands 58%; under TTAGGGAGGTAGCTTT (sugars k3 d10 k3, PS), 54%; under TTAGTACCAAGACACT (sugars k3 d10 k3, PS), 41%.
For the sequence TTAGTATTTGGGTGTT (sugars k3 d10 k3, PS), under “1 µM”, the target mRNA inhibition is 29%.
As to TTAGTTAGAATAGTCT (sugars k3 d10 k3, PS), for the setting “1 µM”, the target mRNA inhibition stood at 8%.
In turn, “TTATAACTACAAGAGG (sugars kkdddddddddkekek, PS)” had a target mRNA inhibition (1 µM) of 55%.
On the same count and under the same terms, under TTATAACTGAGCTAGA (sugars k3 d10 k3, PS) stands 8%; under TTATACTTTTCCGTCT (sugars k3 d10 k3, PS), 61%.
TTATATGAGGTCTGTA (sugars k3 d10 k3, PS) had a target mRNA inhibition (1 µM) of 32%.
TTATGAAGTTAGTATA (sugars k3 d10 k3, PS): the target mRNA inhibition (1 µM) turned out to be 31%.
The sequence TTATGTACCAAACTTG (sugars k3 d10 k3, PS) gave a target mRNA inhibition (1 µM) of 53%.
Sequence “TTATGTGATTGAGTTC (sugars kkdddddddddkekek, PS)” yielded a target mRNA inhibition (1 µM) of 21%.
Sequence TTATTGGTAAGTATTC (sugars k3 d10 k3, PS) came in with a target mRNA inhibition (1 µM) of 17%.
The sequence TTCACCACGATTGTTA (sugars k3 d10 k3, PS) returned a target mRNA inhibition (1 µM) of 40%.
For the sequence TTCATAGGGAGACCAT (sugars k3 d10 k3, PS), the target mRNA inhibition (1 µM) was determined as 65%.
On to TTCATTCGAATTTCTT (sugars k3 d10 k3, PS), for which the target mRNA inhibition reads like this: (0.02 µM) 12%; (0.078 µM) 10%; (0.313 µM) 43%; (1 µM) 71%; (1.25 µM) 78%; (5 µM) 89%.
With TTCCAAATCAGGTAGT (sugars k3 d10 k3, PS), under “1 µM”, the target mRNA inhibition came to 12%.
Consider TTCCATCTATCAGACT (sugars k3 d10 k3, PS), for which the target mRNA inhibition (1 µM) amounted to 33%.
Take “TTCCATCTATCAGACT (sugars kkdddddddddkekek, PS)”: where the note is “1 µM”, the target mRNA inhibition is 33%.
With TTCCCAACGCAACAGT (sugars k3 d10 k3, PS), the target mRNA inhibition (1 µM) came to 60%.
In the case of TTCCTCCACACCGCGC (sugars k3 d10 k3, PS), for the setting “1 µM”, the target mRNA inhibition stood at 47%.
Consider TTCGAAACTATTCATA (sugars k3 d10 k3, PS), for which the target mRNA inhibition (1 µM) is 44%.
On the same count and under the same terms, the value for TTCGGCACTCAGCTGC (sugars k3 d10 k3, PS) was 41%.
With TTCTACAGAAGACTAC (sugars k3 d10 k3, PS), the target mRNA inhibition (1 µM) is 40%.
Turning to TTCTATGCAAGCCTTC (sugars k3 d10 k3, PS), the target mRNA inhibition (1 µM) came out at 51%.
For TTCTCAAGGAGTACTT (sugars k3 d10 k3, PS), the target mRNA inhibition (1 µM) was 76%.
TTCTCTCCATCATCGA (sugars k3 d10 k3, PS) returned a target mRNA inhibition (1 µM) of 35%.
Under “1 µM”, TTCTGTAGGACTCTGC (sugars k3 d10 k3, PS) gave a target mRNA inhibition of 72%.
TTCTGTGGCATGGCTA (sugars k3 d10 k3, PS): the target mRNA inhibition stood at 0% (0.02 µM); 0% (0.078 µM); 34% (0.313 µM); 78% (1 µM); 67% (1.25 µM); 91% (5 µM).
In the case of “TTCTTATGTAATAGCC (sugars k3 d9 k3 e1, PS)”, the target mRNA inhibition runs as follows: (0.02 µM) 17%; (0.078 µM) 25%; (0.313 µM) 57%; (1 µM) 73%; (1.25 µM) 76%; (5 µM) 85%.
Turning to “TTGAATAGCAAGCCAA (sugars k3 d1 m1 d8 k3, PS)”, the target mRNA inhibition (1 µM) was 30%.
Where the note is “1 µM”, TTGAATTCACTATCTC (sugars k3 d10 k3, PS) showed a target mRNA inhibition of 45%.
Sequence TTGATATTCTGTGGCA (sugars k3 d10 k3, PS) gave a target mRNA inhibition (0.02 µM) of 0%; a target mRNA inhibition (0.078 µM) of 17%; a target mRNA inhibition (0.313 µM) of 58%; a target mRNA inhibition (1 µM) of 87%; a target mRNA inhibition (1.25 µM) of 80%; a target mRNA inhibition (5 µM) of 94%.
“TTGATCTCTTAGCTGT (sugars k3 d9 k3 e1, PS)” showed a target mRNA inhibition (1 µM) of 64%.
On to “TTGATCTCTTAGCTGT (sugars kkdddddddddkekek, PS)”, for which the target mRNA inhibition (1 µM) turned out to be 38%.
As for TTGATTCGAAACTATT (sugars k3 d10 k3, PS), the target mRNA inhibition (1 µM) stood at 55%.
In turn, “TTGAUATTCTGTGGCA (sugars k3 d1 m1 d8 k3, PS)” gave a target mRNA inhibition (1 µM) of 60%.
TTGCAAGTTTATCAGT (sugars k3 d10 k3, PS): for the setting “1 µM”, the target mRNA inhibition amounted to 66%.
TTGCAATAGTACTATA (sugars k3 d10 k3, PS) showed a target mRNA inhibition (1 µM) of 3%.
On to “TTGCACCGTTTTGGGC (sugars k3 d9 k3 e1, PS)”, for which the target mRNA inhibition (1 µM) amounted to 50%.
In turn, TTGCAGAAATTCACCT (sugars k3 d10 k3, PS) displayed a target mRNA inhibition (1 µM) of 36%.
The sequence TTGCAGCATTGATTCG (sugars k3 d10 k3, PS) showed a target mRNA inhibition (1 µM) of 59%.
With “TTGCAGTTATTAGAAG (sugars k3 d9 k3 e1, PS)”, under “1 µM”, the target mRNA inhibition came to 10%.
On to “TTGGAATGCTACTTGA (sugars kkdddddddddkekek, PS)”, for which the target mRNA inhibition (1 µM) turned out to be 54%.
In turn, “TTGGTAAGTATTCCAT (sugars k3 d9 k3 e1, PS)” registered a target mRNA inhibition (1 µM) of 28%.
The same measure, in the same setting: under TTGGTTGGAGGCTGTA (sugars k3 d10 k3, PS) stands 60%; under TTGTATGAGGTCTCTC (sugars k3 d10 k3, PS), 50%; under TTGTCTAAACATCTCT (sugars k3 d10 k3, PS), 60%.
The sequence TTGTGTAGTCCTAGGG (sugars k3 d10 k3, PS) showed a target mRNA inhibition (1 µM) of 64%.
In the case of TTGTTAAGCAGATGGC (sugars k3 d10 k3, PS), the target mRNA inhibition stood at 1% (0.02 µM); 1% (0.078 µM); 30% (0.313 µM); 84% (1 µM); 79% (1.25 µM); 85% (5 µM).
“TTTAAAATAGAGTCGG (sugars kkdddddddddkekek, PS)” showed a target mRNA inhibition (1 µM) of 43%.
As for TTTAACTTTCCTCCGT (sugars k3 d10 k3, PS), where the note is “1 µM”, the target mRNA inhibition came out at 16%.
Take TTTAATACGACTTCCT (sugars k3 d10 k3, PS): the target mRNA inhibition was 0% (0.02 µM); 0% (0.078 µM); 27% (0.313 µM); 72% (1 µM); 68% (1.25 µM); 83% (5 µM).
